The supplement of paper PMC7214452
Structures can show the parent of a compound that is named as a salt.

Columns and labels:
Experiment in all cases: normalized area under the dose-response curve (viability relative to DMSO control) (fraction); higher = less sensitive (more viable cells)
Details in all cases: exposure time not given
[1] = tested on: KMS34 (cancer type: MM)
Description: (§1)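 25 myeloma and 15 non-Hodgkin lymphoma cell lines were exposed to each of 76 drugs as 7-point log dilutions (0.01 nM–10 µM) in duplicate. Viability was read with CellTiter-Glo and normalised to DMSO (0.1%) and staurosporine (10 µM) plate controls. Normalised AUC was calculated by the trapezoidal method relative to the negative control.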

[2] = tested on: OCI-LY3 (cancer type: DLBCL)
Description: as §1

[3] = tested on: OCI-MY5/Vec (cancer type: MM)
Description: as §1

[4] = tested on: SU-DHL6 (cancer type: DLBCL)
Description: as §1

[5] = tested on: XG2 (cancer type: MM)
Description: as §1

[6] = tested on: SU-DHL2 (cancer type: DLBCL)
Description: as §1

[7] = tested on: LP1 (cancer type: MM)
Description: as §1

[8] = tested on: JVM2 (cancer type: Mantle)
Description: as §1

[9] = tested on: SR-786 (cancer type: TCL)
Description: as §1

[10] = tested on: OCI-LY19 (cancer type: DLBCL)
Description: as §1

[11] = tested on: Mino (cancer type: Mantle)
Description: as §1

[12] = tested on: JJN3 (cancer type: MM)
Description: as §1

[13] = tested on: SU-DHL1 (cancer type: TCL)
Description: as §1

[14] = tested on: OCI-MY5/CRBN (cancer type: MM)
Description: as §1

[15] = tested on: KMS12PE (cancer type: MM)
Description: as §1

[16] = tested on: MM1.R (cancer type: MM)
Description: as §1

[17] = tested on: FR4 (cancer type: MM)
Description: as §1

[18] = tested on: OCI-MY7 (cancer type: MM)
Description: as §1

[19] = tested on: L363 (cancer type: MM)
Description: as §1

[20] = tested on: MM1.S (cancer type: MM)
Description: as §1

[21] = tested on: NCI-H929 (cancer type: MM)
Description: as §1

[22] = tested on: RPMI 8226 (cancer type: MM)
Description: as §1

[23] = tested on: Granta-519 (cancer type: Mantle)
Description: as §1

[24] = tested on: Karpas-299 (cancer type: TCL)
Description: as §1

[25] = tested on: OPM2 (cancer type: MM)
Description: as §1

[26] = tested on: U266 (cancer type: MM)
Description: as §1

[27] = tested on: KMS28BM (cancer type: MM)
Description: as §1

[28] = tested on: EJM (cancer type: MM)
Description: as §1

[29] = tested on: HuT 78 (cancer type: TCL)
Description: as §1

[30] = tested on: SKMM2 (cancer type: MM)
Description: as §1

[31] = tested on: Se-Ax (cancer type: TCL)
Description: as §1

[32] = tested on: KMS18 (cancer type: MM)
Description: as §1

[33] = tested on: KMS26 (cancer type: MM)
Description: as §1

[34] = tested on: JeKo-1 (cancer type: Mantle)
Description: as §1

[35] = tested on: KMS28PE (cancer type: MM)
Description: as §1

[36] = tested on: AMO1 (cancer type: MM)
Description: as §1

[37] = tested on: OCI-MY5 (cancer type: MM)
Description: as §1

[38] = tested on: My-La (cancer type: TCL)
Description: as §1

[39] = tested on: OCI-LY1 (cancer type: DLBCL)
Description: as §1

[40] = tested on: KMS11 (cancer type: MM)
Description: as §1

Row | Structure (SMILES) | normalized area under the dose-response curve [1] | normalized area under the dose-response curve [2] | normalized area under the dose-response curve [3] | normalized area under the dose-response curve [4] | normalized area under the dose-response curve [5] | normalized area under the dose-response curve [6] | normalized area under the dose-response curve [7] | normalized area under the dose-response curve [8] | normalized area under the dose-response curve [9] | normalized area under the dose-response curve [10] | normalized area under the dose-response curve [11] | normalized area under the dose-response curve [12] | normalized area under the dose-response curve [13] | normalized area under the dose-response curve [14] | normalized area under the dose-response curve [15] | normalized area under the dose-response curve [16] | normalized area under the dose-response curve [17] | normalized area under the dose-response curve [18] | normalized area under the dose-response curve [19] | normalized area under the dose-response curve [20] | normalized area under the dose-response curve [21] | normalized area under the dose-response curve [22] | normalized area under the dose-response curve [23] | normalized area under the dose-response curve [24] | normalized area under the dose-response curve [25] | normalized area under the dose-response curve [26] | normalized area under the dose-response curve [27] | normalized area under the dose-response curve [28] | normalized area under the dose-response curve [29] | normalized area under the dose-response curve [30] | normalized area under the dose-response curve [31] | normalized area under the dose-response curve [32] | normalized area under the dose-response curve [33] | normalized area under the dose-response curve [34] | normalized area under the dose-response curve [35] | normalized area under the dose-response curve [36] | normalized area under the dose-response curve [37] | normalized area under the dose-response curve [38] | normalized area under the dose-response curve [39] | normalized area under the dose-response curve [40]
1 | Nc1ncn([C@H]2C[C@H](O)[C@@H](CO)O2)c(=O)n1 [Decitabine] | 0.702 | 0.883 | 0.93 | 0.844 | 0.896 | 0.94 | 0.88 | 0.879 | 0.854 | 0.84 | 0.818 | 0.912 | 0.962 | 0.888 | 0.9 | 0.85 | 0.937 | 0.91 | 0.82 | 0.89 | 0.89 | 0.914 | 0.978 | 0.912 | 0.835 | 0.804 | 0.955 | 0.916 | 0.958 | 0.933 | 0.832 | 0.97 | 0.897 | 0.644 | 0.778 | 0.836 | 0.773 | 0.957 | 0.912 | 0.871
2 | C[C@@H]1C[C@H]2[C@@H]3CCC4=CC(=O)C=C[C@]4(C)[C@@]3(F)[C@@H](O)C[C@]2(C)[C@@]1(O)C(=O)CO [Dexamethasone] | 0.487 | 0.963 | 0.814 | 0.8 | 0.863 | 0.686 | 0.613 | 0.799 | 0.972 | 0.947 | 0.86 | 0.983 | 0.907 | 0.928 | 0.96 | 0.94 | 0.933 | 0.76 | 0.756 | 0.66 | 0.79 | 0.777 | 0.925 | 0.852 | 0.826 | 0.818 | 0.904 | 0.777 | 0.873 | 0.648 | 0.759 | 0.788 | 0.773 | 0.875 | 0.735 | 0.762 | 0.725 | 0.883 | 0.924 | 0.805
3 | CCc1cnn2c(NCc3ccc[n+]([O-])c3)cc(N3CCCC[C@H]3CCO)nc12 [Dinaciclib] | 0.124 | 0.148 | 0.0029 | 0.667 | 0.0928 | 0.393 | 0.0551 | 0.259 | 0.0218 | 0.414 | 0.392 | 0.0469 | 0.0533 | 0.0017 | 0.04 | 0.03 | 0.0504 | 0.02 | 0.0142 | 0.03 | 0.04 | 0.0467 | 0.625 | 0.0458 | 0.0465 | 0.0357 | 0.0793 | 0.0534 | 0.0209 | 0.628 | 0.31 | 0.0366 | 0.0286 | 0.0614 | 0.169 | 0.03 | 0.0272 | 0.582 | 0.0794 | 0.084
4 | Cc1ccc(-n2nc(C(C)(C)C)cc2NC(=O)Nc2ccc(OCCN3CCOCC3)c3ccccc23)cc1 [Doramapimod] | 0.737 | 0.9 | 0.916 | 0.858 | 0.806 | 0.901 | 0.87 | 0.687 | 0.919 | 0.645 | 0.97 | 0.726 | 0.737 | 0.961 | 0.89 | 0.88 | 0.932 | 0.89 | 0.801 | 0.8 | 0.87 | 0.917 | 0.938 | 0.916 | 0.834 | 0.634 | 0.887 | 0.872 | 0.812 | 0.969 | 0.736 | 0.926 | 0.787 | 1.04 | 0.842 | 0.842 | 0.693 | 0.907 | 0.999 | 0.782
5 | CC(C)(O)CNc1nc(Nc2ccnc(C(F)(F)F)c2)nc(-c2cccc(C(F)(F)F)n2)n1 [Enasidenib (Agios ag-221)] | 0.853 | 1 | 0.847 | 0.92 | 0.899 | 0.918 | 0.772 | 0.787 | 0.908 | 0.972 | 0.877 | 0.822 | 0.888 | 0.903 | 0.9 | 0.81 | 0.944 | 0.81 | 0.802 | 0.8 | 0.92 | 0.92 | 0.975 | 0.9 | 0.749 | 0.914 | 0.894 | 0.865 | 0.86 | 0.905 | 0.837 | 0.772 | 0.887 | 0.881 | 0.819 | 0.864 | 0.723 | 0.947 | 0.957 | 0.95
6 | C#Cc1cccc(Nc2ncnc3cc(OCCOC)c(OCCOC)cc23)c1 [Erlotinib hydrochloride] | 0.805 | 0.897 | 0.861 | 0.905 | 0.888 | 0.839 | 0.869 | 0.665 | 0.962 | 0.864 | 0.95 | 0.878 | 0.87 | 0.878 | 0.8 | 0.84 | 0.877 | 0.84 | 0.814 | 0.86 | 0.88 | 0.903 | 0.938 | 0.907 | 0.86 | 0.946 | 0.847 | 0.91 | 0.756 | 0.922 | 0.84 | 0.84 | 0.928 | 0.886 | 0.871 | 0.897 | 0.796 | 0.972 | 0.888 | 0.85
7 | CO[C@H]1C[C@@H]2CC[C@@H](C)[C@@](O)(O2)C(=O)C(=O)N2CCCC[C@H]2C(=O)O[C@H]([C@H](C)C[C@@H]2CC[C@@H](OCCO)[C@H](OC)C2)CC(=O)[C@H](C)/C=C(\C)[C@@H](O)[C@@H](OC)C(=O)[C@H](C)C[C@H](C)/C=C/C=C/C=C/1C [Everolimus] | 0.557 | 0.785 | 0.819 | 0.685 | 0.505 | 0.566 | 0.831 | 0.64 | 0.729 | 0.592 | 0.72 | 0.656 | 0.639 | 0.829 | 0.72 | 0.63 | 0.758 | 0.83 | 0.627 | 0.63 | 0.71 | 0.769 | 0.783 | 0.682 | 0.593 | 0.606 | 0.813 | 0.661 | 0.699 | 0.802 | 0.545 | 0.617 | 0.76 | 0.876 | 0.699 | 0.637 | 0.676 | 0.711 | 0.665 | 0.674
8 | Nc1nc(F)nc2c1ncn2[C@@H]1O[C@H](COP(=O)(O)O)[C@@H](O)[C@@H]1O [Fludarabine phosphate] | 0.785 | 0.962 | 1 | 0.927 | 0.857 | 0.918 | 0.938 | 0.855 | 0.914 | 1.02 | 0.844 | 0.934 | 0.888 | 0.972 | 0.94 | 0.92 | 0.858 | 0.95 | 0.781 | 0.87 | 0.9 | 0.767 | 0.949 | 0.885 | 0.859 | 0.812 | 0.834 | 0.882 | 0.911 | 0.88 | 0.798 | 0.894 | 0.863 | 0.912 | 0.767 | 0.813 | 0.788 | 0.879 | 0.866 | 0.746
